Reference: patent US6750244B2, “Compounds active at a novel site on receptor-operated calcium channels useful for treatment of neurological disorders and diseases” (NPS Pharmaceuticals, Inc., priority 1993, dated 2004)
Values joined by “and” are separate entries in the source; they are usually repeats but may differ in a detail not shown here. Equal values may be shown once. Where a name gives a salt, the structure may show the parent alone. Read-outs that look alike come from different tables or passages of the source. Marks after values point to notes of the source that are not given here.

Tests used:
[1] = biological target: NMDA receptor-ionophore complex (site labeled by [3H]MK-801); assay: Inhibition of [3H]MK-801 binding in rat cortical/hippocampal washed membrane preparations; conditions: for IC50: read-out: IC50 (μM) vs. [3H]MK-801, rat cortical/hippocampal washed membranes
[2] = tested on: NMDA receptor; assay: Inhibition of NMDA/glycine-induced increases in intracellular calcium in cultured rat cerebellar granule cells (RCGC); assay type: cell-based
[3] = NMDA/glycine-induced increases in intracellular calcium, cultured rat cerebellar granule cells; read-out: IC50 (μM) vs. NMDA

| SMILES | IC50 [1] [µM] | IC50 [2, 3] | other results |
| --- | --- | --- | --- |
| CCC(NCCC(c1ccccc1)c1ccccc1)c1ccccc1OC (racemic) [Compound 167, (R,S)-N-1-(2-methoxyphenylpropyl)-3,3-diphenylpropylamine] | 14.5 | 0.08 µM |  |
| NCC[C@H](c1cccc(F)c1)c1ccc(O)c(F)c1 (racemic) [Compound 175, (R,S)-3-(3-Fluoro-4-hydroxy)-3-(3-fluorophenyl)propylamine maleate] | 5.1 |  |  |
| C[C@@H](NCCC(c1ccccc1)c1ccccc1)c1ccccc1 [(R)-fendiline, reference compound] |  | 0.719 µM |  |
| C[C@H](NCCC(c1ccccc1)c1ccccc1)c1ccccc1 [(S)-fendiline, reference compound] |  | 0.686 µM |  |
| COc1ccc(C(CC(C)N)c2ccccc2)cc1 (centres unmarked) [Astra compound, reference compound] |  | > 30 µM |  |
| COc1ccccc1CC(=O)NC(CC(N)=O)C(=O)NCCCCCNCCCNCCCNC(=O)C(N)CCCNC(=N)N (centres unmarked) [Compound 5] | 15.2 | 0.102 µM | IC50 ([2]; TFA salt; read-out: IC50 (μM) vs. NMDA): 0.07 µM |
| COc1ccccc1CC(=O)NC(Cc1ccccc1)C(=O)NCCCCCNCCCNCCCNC(=O)C(N)CCCNC(=N)N (centres unmarked) [Compound 6] | > 100 | 0.129 µM | % inhibition of [3H]MK-801 binding at the stated concentration (IC50 study incomplete) ([1]; at 100 μM): (0% at 100 μM)^d |
| COc1ccccc1CC(=O)NC(CC(C)C)C(=O)NCCCCCNCCCNCCCNC(=O)C(N)CCCNC(=N)N (centres unmarked) [Compound 7] | 129 | 0.163 µM |  |
| COc1ccccc1CC(=O)NC(CC(N)=O)C(=O)NCCCCCNCCCNCCCNC(=O)C(N)CCCCN (centres unmarked) [Compound 8] | 219 | 0.099 µM |  |
| N=C(N)NCCCC(N)C(=O)NCCCNCCCNCCCCCNC(=O)C(CC(N)=O)NC(=O)Cc1ccccc1O (centres unmarked) [Compound 10] |  | 0.082 µM | % inhibition of [3H]MK-801 binding at the stated concentration (IC50 study incomplete) ([1]; at 80 μM): (57% at 80 μM)^d |
| NCCCOCCCCOCCCNC(=O)Cc1cc(Br)ccc1O [Compound 15] |  | 4.9 µM |  |
| NCCCOCCCCOCCCNC(=O)Cc1c[nH]c2ccc(Br)cc12 [Compound 16] | 28.8 | 5.1 µM |  |
| COc1ccccc1CC(=O)NCCCOCCCCOCCCN [Compound 18] | 34 | 5.1 µM |  |
| CCN(CC)CCC(c1ccccc1)c1ccccc1 [Compound 74, N,N-diethyl-3,3-diphenylpropylamine] |  | 27.5 µM |  |
| NCCC(c1cccc(C(F)(F)F)c1)c1cccc(C(F)(F)F)c1 [Compound 78, 3,3-bis[3-(trifluoromethyl)phenyl]-1-propylamine] |  |  | IC50 ([2]; read-out: IC50 (μM) vs. NMDA; NMDA/glycine-induced increases in intracellular calcium, cultured rat cerebellar granule cells): 10.2 µM |
| NCCc1ccccc1Cc1ccccc1F [Compound 129] |  | 1.26 µM |  |
| NCCc1ccccc1Cc1cccc(F)c1 [Compound 130] |  | 0.851 µM |  |
| NCCc1ccccc1Cc1ccc(F)cc1 [Compound 131] |  | 1.23 µM |  |
| NCCC1c2cccc(F)c2CCc2c(F)cccc21 [Compound 193] |  |  | activity vs. [3H]MK-801 binding ([1]; @ 1 μM): inactive @ 1 μM |
| CN(C)CCCN1c2ccccc2CCc2ccccc21 [Imipramine, reference compound] | 6.75 |  |  |
| CN(C)CCC(c1ccc(Br)cc1)c1ccccn1 (centres unmarked) [brompheniramine, reference compound] |  | 138 µM |  |
| CNCCCN1c2ccccc2CCc2ccccc21 [desipramine, reference compound] | 3.26 |  |  |
| CC(C)N(CCC(C(N)=O)(c1ccccc1)c1ccccn1)C(C)C (centres unmarked) [disopyramide, reference compound] |  | > 100 µM |  |
| CC(C)[N+](C)(CCC(C(N)=O)(c1ccccc1)c1ccccc1)C(C)C [isopropamide, reference compound] |  | 87 µM |  |
| Cc1cccc(C)c1NC(=O)CN1CCN(CCCC(c2ccc(F)cc2)c2ccc(F)cc2)CC1 [lidoflazine, reference compound] |  | > 30 µM |  |
| CN(C)CCC(c1ccccc1)c1ccccn1 (centres unmarked) [pheniramine, reference compound] |  | 22 µM |  |
| OC(CCN1CCCCC1)(c1ccccc1)C1CCCCC1 (centres unmarked) [trihexyphenidyl, reference compound] |  | 5.13 µM |  |
| CN(C)C/C=C(/c1ccc(Br)cc1)c1cccnc1 [zimeldine, reference compound] |  | ≥ 26 µM |  |

Now from value to molecule, other results behind:

| IC50 [1] [µM] | IC50 [2, 3] | SMILES | other results |
| --- | --- | --- | --- |
| 3.83 | 2.67 µM | NCC=C(c1ccccc1)c1cccc(F)c1 (racemic) [Compound 107, 3-(3-fluorophenyl)-3-phenyl-prop-2-ene-1-amine] |  |
| 24.1 | 22.9 µM | COc1ccc(C(CCN)c2cccc(F)c2)cc1F (racemic) [Compound 173, (R,S)-3-(3-Fluoro-4-methoxy)-3-(3-fluorophenyl)propylamine maleate] |  |
| 57 |  | CNCCC(c1cccc(F)c1)c1ccc(OC)c(F)c1 (racemic) [Compound 174, (R,S)-N-Methyl-3-(3-fluoro-4-methoxy)-3-(3-fluorophenyl)propyl amine maleate] |  |
| 10 |  | CNCCC(c1cccc(F)c1)c1ccc(O)c(F)c1 (racemic) [Compound 176, (R,S)-N-Methyl-3-(3-fluoro-4-hydroxy)-3-(3-fluorophenyl)propyl amine hydrochloride] |  |
|  | 24.5 µM | NCC(c1ccccc1)c1ccccc1 [2,2-diphenylethylamine, reference compound] |  |
| 14.2 |  | CN(C)CCC=C1c2ccccc2CCc2ccccc21 [Amitriptyline, reference compound] |  |
| 11.2 |  | CN(C)CCCN1c2ccccc2Sc2ccc(Cl)cc21 [Chlorpromazine, reference compound] |  |
| 36.3 | 9.6 µM | NCCCOCCCCOCCCNC(=O)Cc1ccc2ccccc2c1 [Compound 17] |  |
| 5.4 | 0.267 µM | CCC(N)CC(c1cccc(F)c1)c1cccc(F)c1 (centres unmarked) [Compound 23, 3,3-bis(3-fluorophenyl)-1-ethyl-1-propylamine] |  |
| 34 | 27 µM | COc1ccc(C(CCN)c2cccc(F)c2)cc1 (centres unmarked) [Compound 26, 3-(3-fluorophenyl)-3-(4-methoxyphenyl)-1-propylamine] |  |
| 0.18 | 0.071 µM | Cc1ccccc1C(CCN)c1cccc(F)c1 (centres unmarked) [Compound 27, 3-(3-fluorophenyl)-3-(2-methylphenyl)-1-propylamine] |  |
| 2.3 | 0.38 µM | Cc1cccc(C(CCN)c2cccc(F)c2)c1 (centres unmarked) [Compound 28, 3-(3-fluorophenyl)-3-(3-methylphenyl)-1-propylamine] |  |
| 5.8 | 1.9 µM | Cc1ccc(C(CCN)c2cccc(F)c2)cc1 (centres unmarked) [Compound 29, 3-(3-fluorophenyl)-3-(4-methylphenyl)-1-propylamine] |  |
| 0.407 | 0.035 µM | NCCC(c1cccc(F)c1)c1cccc(Cl)c1 (centres unmarked) [Compound 30, 3-(3-fluorophenyl)-3-(3-chlorophenyl)-1-propylamine] |  |
|  | 2.9 µM | CCNCCC(c1ccccc1)c1ccccc1 [Compound 68, N-ethyl-3,3-diphenylpropylamine] |  |
|  | 1.7 µM | NCCCC(c1ccccc1)c1ccccc1 [Compound 70, 4,4-diphenylbutylamine] |  |
|  | 6.35 µM and 6.4 µM | NCCCCC(c1ccccc1)c1ccccc1 [Compound 71, 5,5-diphenylpentylamine] |  |
|  | 7.4 µM | CC(C)NCCC(c1ccccc1)c1ccccc1 [Compound 72, N-isopropyl-3,3-diphenylpropylamine] |  |
|  | 12.6 µM | CN(C)CCC(c1ccccc1)c1ccccc1 [Compound 73, N,N-dimethyl-3,3-diphenylpropylamine] |  |
|  | 0.94 µM | NCCC(c1ccccc1)C1CCCCC1 (centres unmarked) [Compound 75] |  |

| IC50 [1] [µM] | IC50 [2, 3] | SMILES | other results |
| --- | --- | --- | --- |
|  | 0.73 µM | NCCC(c1ccc(F)cc1)c1ccccc1F (centres unmarked) [Compound 76, 3-(2-fluorophenyl)-3-(4-fluorophenyl)-1-propylamine] |  |
|  | 5.5 µM | NCCC(c1ccc(F)cc1)c1ccc(F)cc1 [Compound 77, 3,3-bis(4-fluorophenyl)-1-propylamine] |  |
|  | 3.6 µM and 4.47 µM | COc1cccc(C(=CCN)c2cccc(OC)c2)c1 [Compound 116, 3,3-bis(3-methoxyphenyl)-prop-2-ene-1-amine] |  |
|  | 2.82 µM | COc1cccc(/C(=C\CN)c2cccc(Cl)c2)c1 [Compound 143] |  |
| 0.754 |  | Cc1ccccc1OC(CCN)c1ccccc1 (centres unmarked) [Compound 177] |  |
| 1.25 |  | COc1ccccc1OC(CCN)c1ccccc1 (centres unmarked) [Compound 178] |  |
| 0.371 |  | NCCC1c2cc(F)ccc2CCc2c(F)cccc21 (centres unmarked) [Compound 194] |  |
| 0.029 |  | NCCC1c2cc(F)ccc2CCc2ccc(F)cc21 [Compound 195, 3,7-Difluoro-10,11-dihydro-5-(2-aminoethyl)-5H-dibenzo[a,d]cycloheptene hydrochloride] |  |
| 2.24 |  | NCCC1c2ccccc2CCc2c(F)cccc21 (centres unmarked) [Compound 196] |  |
| 0.053 |  | NCCC1c2ccccc2CCc2ccc(F)cc21 (centres unmarked) [Compound 197, 3-Fluoro-10,11-dihydro-5-(2-aminoethyl)-5H-dibenzo[a,d]cycloheptene hydrochloride] |  |
| 14.5 |  | CN(C)CCC=C1c2ccccc2C=Cc2ccccc21 [Cyclobenzaprine, reference compound] |  |
|  | 28.8 µM | CN(C)CCC(Oc1ccc2c(c1)CCCC2)c1ccc(C#N)cc1 (centres unmarked) [Novo-Nordisk compound^d, reference compound] |  |
|  | ~10 µM | CN1CCN(C(c2ccccc2)c2ccc(Cl)cc2)CC1 (centres unmarked) [chlorcyclizine, reference compound] |  |
|  | 76 µM | CN(C)CCN(Cc1ccc(Cl)cc1)c1ccccn1 [chloropyramine, reference compound] |  |
|  | > 100 µM | CN(C)CCC(c1ccc(Cl)cc1)c1ccccn1 (centres unmarked) [chlorpheniramine, reference compound] |  |
|  | 28 µM | CN1CCN(C(c2ccccc2)c2ccccc2)CC1 [cyclizine, reference compound] |  |
|  | 62 µM | CN(C)CCOC(C)(c1ccccc1)c1ccccn1 (centres unmarked) [doxylamine, reference compound] |  |
|  | > 10 µM | O=c1[nH]c2ccccc2n1C1CCN(CCCC(c2ccc(F)cc2)c2ccc(F)cc2)CC1 [pimozide, reference compound] |  |
|  | 10.7 µM | OC(CCN1CCCCC1)(c1ccccc1)c1ccccc1 [pridinol, reference compound] |  |
